The values that follow come from article PMC10008561 (Nature Communications, 2023).

One test relates to KOR. Particulars: ERK activation versus p38 activation; cited from earlier work.
In test [1] the target is T1, human KOR (Gi3) (Homo sapiens, UniProt P41145, L253A).
T1 construct: expressed in transfected cells; host or cells: HEK293T
The test can be described thus: cell-based. As to conditions: HEK-293T.

Test [2] deals with T2, human KOR (Gi3) (Homo sapiens, UniProt P41145, Y320L).
T2 construct: expressed in transfected cells; host or cells: HEK293T
The test can be described thus: cell-based. Particulars: HEK-293T.

Test [3] deals with T3, human KOR (Gi3) (Homo sapiens, UniProt P41145, D155A).
T3 construct: expressed in transfected cells; host or cells: HEK293T
The test can be described thus: cell-based. As to conditions: HEK-293T.

Test [4] concerns the target T4, human KOR (Gi3) (Homo sapiens, UniProt P41145, F283A).
T4 construct: expressed in transfected cells; host or cells: HEK293T
Description: cell-based. As to conditions: HEK-293T.

The target of test [5] is T5, human KOR (Gi3) (Homo sapiens, UniProt P41145, Y139L).
T5 construct: expressed in transfected cells; host or cells: HEK293T
The test can be described thus: cell-based. As to conditions: HEK-293T.

Test [6] has as its target T6, human KOR (Gi3) (Homo sapiens, UniProt P41145, R274A).
T6 construct: expressed in transfected cells; host or cells: HEK293T
The test can be described thus: cell-based. As to conditions: HEK-293T.

The target of test [7] is T7, human KOR (Gi3) (Homo sapiens, UniProt P41145, N326A).
T7 construct: expressed in transfected cells; host or cells: HEK293T
Description: cell-based. Particulars: HEK-293T.

Test [8] deals with T8, human KOR (Gi3) (Homo sapiens, UniProt P41145, Q115N).
T8 construct: expressed in transfected cells; host or cells: HEK293T
Description: cell-based. Particulars: HEK-293T.

Test [9] concerns the target T9, human KOR (Gi3) (Homo sapiens, UniProt P41145, N141A).
T9 construct: expressed in transfected cells; host or cells: HEK293T
Description: cell-based. As to conditions: HEK-293T.

Test [10] concerns the target T10, human KOR (Gi3) (Homo sapiens, UniProt P41145, N322A).
T10 construct: expressed in transfected cells; host or cells: HEK293T
The test can be described thus: cell-based. As to conditions: HEK-293T.

The target of test [11] is T11, human KOR (Gi3) (Homo sapiens, UniProt P41145).
T11 construct: expressed in transfected cells; host or cells: HEK293T
Description: cell-based.

For test [12], the target named is T12, human KOR (Gi3) (Homo sapiens, UniProt P41145, K200A).
T12 construct: expressed in transfected cells; host or cells: HEK293T
Description: cell-based. As to conditions: HEK-293T.

The target of test [13] is T13, human KOR (Gi3) (Homo sapiens, UniProt P41145, G319L).
T13 construct: expressed in transfected cells; host or cells: HEK293T
Description: cell-based. As to conditions: HEK-293T.

Test [14] concerns the target T14, human KOR (Gi3) (Homo sapiens, UniProt P41145, T94V).
T14 construct: expressed in transfected cells; host or cells: HEK293T
The test can be described thus: cell-based. As to conditions: HEK-293T.

The target in test [15] is T15, human KOR (Gi3) (Homo sapiens, UniProt P41145, K227A).
T15 construct: expressed in transfected cells; host or cells: HEK293T
Description: cell-based. As to conditions: HEK-293T.

Test [16] addresses T16, human KOR (Gi3) (Homo sapiens, UniProt P41145, R271A).
T16 construct: expressed in transfected cells; host or cells: HEK293T
Description: cell-based. As to conditions: HEK-293T.

In test [17] the target is T17, human KOR (Gi3) (Homo sapiens, UniProt P41145, D334A).
T17 construct: expressed in transfected cells; host or cells: HEK293T
The test can be described thus: cell-based. As to conditions: HEK-293T.

Test [18] concerns the target T18, human KOR (Gi3) (Homo sapiens, UniProt P41145, E297A).
T18 construct: expressed in transfected cells; host or cells: HEK293T
Description: cell-based. Particulars: HEK-293T.

Test [19] concerns the target T19, human KOR (Gi3) (Homo sapiens, UniProt P41145, R257A).
T19 construct: expressed in transfected cells; host or cells: HEK293T
Description: cell-based. Particulars: HEK-293T.

The target in test [20] is T20, human KOR (Gi3) (Homo sapiens, UniProt P41145, D266A).
T20 construct: expressed in transfected cells; host or cells: HEK293T
The test can be described thus: cell-based. As to conditions: HEK-293T.

The target in test [21] is T21, human KOR (Gi3) (Homo sapiens, UniProt P41145, D105A).
T21 construct: expressed in transfected cells; host or cells: HEK293T
The test can be described thus: cell-based. As to conditions: HEK-293T.

T11 sequence (P41145 whole entry): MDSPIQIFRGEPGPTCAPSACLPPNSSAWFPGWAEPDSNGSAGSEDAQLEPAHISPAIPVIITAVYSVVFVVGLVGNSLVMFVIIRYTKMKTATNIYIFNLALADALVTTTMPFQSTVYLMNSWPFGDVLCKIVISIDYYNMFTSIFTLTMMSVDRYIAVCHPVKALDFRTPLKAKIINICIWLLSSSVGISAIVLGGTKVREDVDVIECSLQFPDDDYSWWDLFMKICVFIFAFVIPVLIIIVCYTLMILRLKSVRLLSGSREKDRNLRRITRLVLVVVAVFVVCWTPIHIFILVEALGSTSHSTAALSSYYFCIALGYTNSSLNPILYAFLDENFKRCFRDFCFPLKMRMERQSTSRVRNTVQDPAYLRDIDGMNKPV
T10 sequence (P41145 whole entry N322A): as the sequence (P41145 whole entry) above, with N322A counted along it
T20 sequence (P41145 whole entry D266A): as the sequence (P41145 whole entry) above, with D266A counted along it
T1 sequence (P41145 whole entry L253A): as the sequence (P41145 whole entry) above, with L253A counted along it
T21 sequence (P41145 whole entry D105A): as the sequence (P41145 whole entry) above, with D105A counted along it
T15 sequence (P41145 whole entry K227A): as the sequence (P41145 whole entry) above, with K227A counted along it
T2 sequence (P41145 whole entry Y320L): as the sequence (P41145 whole entry) above, with Y320L counted along it
T7 sequence (P41145 whole entry N326A): as the sequence (P41145 whole entry) above, with N326A counted along it
T12 sequence (P41145 whole entry K200A): as the sequence (P41145 whole entry) above, with K200A counted along it
T16 sequence (P41145 whole entry R271A): as the sequence (P41145 whole entry) above, with R271A counted along it
T13 sequence (P41145 whole entry G319L): as the sequence (P41145 whole entry) above, with G319L counted along it
T8 sequence (P41145 whole entry Q115N): as the sequence (P41145 whole entry) above, with Q115N counted along it
T5 sequence (P41145 whole entry Y139L): as the sequence (P41145 whole entry) above, with Y139L counted along it
T3 sequence (P41145 whole entry D155A): as the sequence (P41145 whole entry) above, with D155A counted along it
T9 sequence (P41145 whole entry N141A): as the sequence (P41145 whole entry) above, with N141A counted along it
T17 sequence (P41145 whole entry D334A): as the sequence (P41145 whole entry) above, with D334A counted along it
T6 sequence (P41145 whole entry R274A): as the sequence (P41145 whole entry) above, with R274A counted along it
T19 sequence (P41145 whole entry R257A): as the sequence (P41145 whole entry) above, with R257A counted along it
T4 sequence (P41145 whole entry F283A): as the sequence (P41145 whole entry) above, with F283A counted along it
T18 sequence (P41145 whole entry E297A): as the sequence (P41145 whole entry) above, with E297A counted along it
T14 sequence (P41145 whole entry T94V): as the sequence (P41145 whole entry) above, with T94V counted along it

As a reminder, the Emax is the maximal effect, on the per cent scale that the assay sets. For the compound `CN(C(=O)/C=C/c1ccoc1)[C@@H]1CC[C@@]2(O)[C@H]3Cc4ccc(O)c5c4[C@@]2(CCN3CC2CC2)[C@H]1O5` [Nalfurafine, nalfurafine], the “bias factor toward G protein signaling” value in the test with KOR is 200. The Emax on human KOR (Gi3) [1] came out at 104%; at human KOR (Gi3) [2] it was 66.9%; at human KOR (Gi3) [3], 77.8%; on human KOR (Gi3) [4] it was 74.8%; on human KOR (Gi3) [5] it was 96%; on human KOR (Gi3) [6] it was 98.8%. Besides, the maximal effect (Emax) was found to be 106% at human KOR (Gi3) [7]; 78.7% on human KOR (Gi3) [8]; 107% at human KOR (Gi3) [9]; 95.8% on human KOR (Gi3) [10]; 100% on human KOR (Gi3) [11] (HEK-293T); 93.1% at human KOR (Gi3) [12]. The Emax on human KOR (Gi3) [13] was 106%; on human KOR (Gi3) [14], 98.2%; at human KOR (Gi3) [15], 106%; on human KOR (Gi3) [16], 103%; at human KOR (Gi3) [17], 101%; at human KOR (Gi3) [18] it was 100%. The maximal response (Emax) on human KOR (Gi3) [19] came out at 100%; at human KOR (Gi3) [20] it was 105%; on human KOR (Gi3) [21], 81.7%. At human KOR (Gi3) [11], this compound yielded an Emax% of 99.93%.
